We go through 2 molecules from PMC10282898 (Organic & Biomolecular Chemistry, 2023).

The term Ki denotes the dissociation constant of the complex between target and ligand, obtained from inhibition or displacement.

Molecules are shown by their SMILES.

In experiment [1] the test system is A3 enzymes. The note with it: cited from earlier work.
Experiment [2] addresses hCDA (Homo sapiens, UniProt P32320). In words: Quantitative evaluation of hCDA inhibitors. In kind it is biochemical.

Sequence of hCDA (P32320 whole entry): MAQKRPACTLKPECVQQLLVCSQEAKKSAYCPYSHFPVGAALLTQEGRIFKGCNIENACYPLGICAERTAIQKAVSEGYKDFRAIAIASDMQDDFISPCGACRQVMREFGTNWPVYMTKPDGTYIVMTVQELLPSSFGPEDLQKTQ

Turning to `O=C1NC(O)CCN1[C@@H]1O[C@H](CO)[C@@H](O)[C@H]1O` (stereo partly drawn) [THU, tetrahydrouridine], the “inhibition of A3 enzymes by free nucleosides” value in experiment [1] was “did not inhibit”.
Consider `O=C1NCC=CCN1[C@H]1C[C@H](O)[C@@H](CO)O1` [dDiAzep, 8, 1,3-diazepin-2-one 2′-deoxyriboside], for which the Ki in experiment [2] (hCDA 27 nM, dC substrate, pH 7.4, 25 °C, competitive inhibition assumed) was determined as 0.43 ± 0.08 µM. The Km/Ki in experiment [2] (hCDA, Km of dC over Ki of inhibitor) was 512.
